Experimental data taken from BindingDB's records for patent US12377080 (Dana-Farber Cancer Institute, 2025).
pIC50: −log10 of the molar value.

How the values were obtained:
[1] = molecular target: Epidermal growth factor receptor [L858R] (Homo sapiens, UniProt P00533, L858R); assay: HTRF-Based EGFR Biochemical Assays
Protocol: (§1) EGFR biochemical activity measurements were carried out using the homogeneous time-resolved fluorescence (HTRF) assay (Cisbio). Inhibitors and DMSO normalizations were first dispensed to empty black low-volume 384-well plates (Corning) with D300 digital liquid dispenser (HP). All reactions were carried out at room temperature and solutions were added to plates with a Multidrop Combi Reagent Dispenser (ThermoFisher). The reaction mixture (10 μL final volume) contained 1 μM tyrosine kinase peptide-biotin substrate and mutant EGFR in a reaction buffer (50 mM HEPES pH 7,0, 5 mM MgCl2,1 mM MnCl2, 0.01% BSA, 2 mM TCEP, 0.1 mM NaVO4). Enzyme concentrations were adjusted to accommodate varying kinase activities (L858R 0.1 nM, L858R!T790M 0,02 nM). Enzyme reaction solution (2× concentrations, 5 μL) was added to 384-well plates containing compounds and incubated for 30 mins. Enzyme reactions were initiated with the addition of […] of ATP to a final concentration of 100 μM and reacted for 20 mins. Reactions were quenched with the addition of 10 μL of phospho-tyrosine antibody-Europium(III) cryptate (1-to-180 volume ratio) and Streptavidin-XL665 (46.7 nM) in EDTA-containing detection buffer, then incubated at room temperature for 1 hour, and read with a PHERAstar plate reader (excitation =337 nm, emission =620 nm and 665 nm).

[2] = molecular target: Epidermal growth factor receptor [T790M,L858R] (Homo sapiens, UniProt P00533, L858R/T790M); assay: HTRF-Based EGFR Biochemical Assays
Protocol: as §1

Epidermal growth factor receptor [L858R], sequence (P00533 25-1210 L858R limits assumed): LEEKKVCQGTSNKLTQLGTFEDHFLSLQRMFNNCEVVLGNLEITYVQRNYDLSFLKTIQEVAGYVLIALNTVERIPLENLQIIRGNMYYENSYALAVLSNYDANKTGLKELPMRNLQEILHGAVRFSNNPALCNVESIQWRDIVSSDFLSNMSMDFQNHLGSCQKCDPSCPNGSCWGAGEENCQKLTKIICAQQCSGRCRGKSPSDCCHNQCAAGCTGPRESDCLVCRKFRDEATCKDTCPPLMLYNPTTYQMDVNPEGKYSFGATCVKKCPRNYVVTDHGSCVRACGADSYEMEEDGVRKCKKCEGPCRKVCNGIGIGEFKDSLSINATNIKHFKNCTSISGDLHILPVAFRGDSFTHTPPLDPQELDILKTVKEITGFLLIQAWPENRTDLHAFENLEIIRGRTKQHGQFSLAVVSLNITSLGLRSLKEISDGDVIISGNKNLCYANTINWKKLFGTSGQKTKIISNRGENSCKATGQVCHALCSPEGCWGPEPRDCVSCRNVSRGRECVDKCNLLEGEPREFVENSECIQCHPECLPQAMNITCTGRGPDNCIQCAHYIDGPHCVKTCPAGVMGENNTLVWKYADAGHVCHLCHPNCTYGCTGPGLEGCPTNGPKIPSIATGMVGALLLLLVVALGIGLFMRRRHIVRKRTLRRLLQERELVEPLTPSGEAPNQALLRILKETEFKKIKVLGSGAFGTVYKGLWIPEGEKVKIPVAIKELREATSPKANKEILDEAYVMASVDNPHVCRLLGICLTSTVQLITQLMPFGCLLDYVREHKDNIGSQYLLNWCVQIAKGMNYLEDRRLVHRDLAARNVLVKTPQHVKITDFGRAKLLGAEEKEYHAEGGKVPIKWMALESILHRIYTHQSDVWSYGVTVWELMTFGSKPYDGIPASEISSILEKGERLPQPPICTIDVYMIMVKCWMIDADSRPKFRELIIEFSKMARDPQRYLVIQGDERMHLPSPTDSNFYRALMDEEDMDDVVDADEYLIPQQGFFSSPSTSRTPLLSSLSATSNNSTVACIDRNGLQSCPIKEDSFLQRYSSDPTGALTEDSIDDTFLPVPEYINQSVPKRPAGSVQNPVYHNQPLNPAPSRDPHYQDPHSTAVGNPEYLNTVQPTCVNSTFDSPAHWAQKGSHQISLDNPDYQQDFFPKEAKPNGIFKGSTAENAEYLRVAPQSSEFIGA
Epidermal growth factor receptor [T790M,L858R], sequence (P00533 25-1210 T790M/L858R limits assumed): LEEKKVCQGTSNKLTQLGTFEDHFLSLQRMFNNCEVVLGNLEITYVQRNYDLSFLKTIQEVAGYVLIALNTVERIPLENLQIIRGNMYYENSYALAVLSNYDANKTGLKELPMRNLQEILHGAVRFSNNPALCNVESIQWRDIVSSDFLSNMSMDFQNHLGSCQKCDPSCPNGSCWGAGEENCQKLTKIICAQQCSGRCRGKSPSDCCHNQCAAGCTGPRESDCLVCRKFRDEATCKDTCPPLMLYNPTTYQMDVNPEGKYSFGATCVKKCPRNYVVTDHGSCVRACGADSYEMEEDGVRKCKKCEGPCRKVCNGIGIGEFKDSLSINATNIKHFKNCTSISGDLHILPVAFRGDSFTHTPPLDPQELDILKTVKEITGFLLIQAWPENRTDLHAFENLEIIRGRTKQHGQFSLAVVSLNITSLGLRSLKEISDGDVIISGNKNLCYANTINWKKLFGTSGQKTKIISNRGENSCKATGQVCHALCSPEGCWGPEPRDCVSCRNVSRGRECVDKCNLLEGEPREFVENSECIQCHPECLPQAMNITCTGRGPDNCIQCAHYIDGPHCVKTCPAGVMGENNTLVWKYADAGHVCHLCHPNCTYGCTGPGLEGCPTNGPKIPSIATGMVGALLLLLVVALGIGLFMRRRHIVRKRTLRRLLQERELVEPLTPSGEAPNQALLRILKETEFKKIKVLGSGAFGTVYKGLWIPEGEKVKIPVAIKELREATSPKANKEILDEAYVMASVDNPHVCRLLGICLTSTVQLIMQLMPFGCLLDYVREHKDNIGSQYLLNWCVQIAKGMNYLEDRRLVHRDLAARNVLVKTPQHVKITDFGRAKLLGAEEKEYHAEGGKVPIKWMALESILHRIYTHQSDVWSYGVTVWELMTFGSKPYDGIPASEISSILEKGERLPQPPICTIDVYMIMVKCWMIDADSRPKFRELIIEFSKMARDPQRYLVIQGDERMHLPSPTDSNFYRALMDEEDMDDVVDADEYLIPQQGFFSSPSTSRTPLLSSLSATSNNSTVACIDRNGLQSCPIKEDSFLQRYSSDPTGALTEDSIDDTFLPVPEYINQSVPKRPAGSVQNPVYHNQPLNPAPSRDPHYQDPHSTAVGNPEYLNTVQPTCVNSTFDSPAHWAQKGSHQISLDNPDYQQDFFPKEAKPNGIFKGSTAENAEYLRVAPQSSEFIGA

| SMILES | pIC50 [1] | pIC50 [2] |
| --- | --- | --- |
| O=C(Nc1nccs1)C(c1cccc(F)c1)N1Cc2cnc(Br)cc2C1=O (stereo not given) [US12377080, Compound 1] | < 6.00 | 6.98 |
| O=C(Nc1nccs1)C(c1cccc(F)c1)N1Cc2ncc(Br)cc2C1=O (stereo not given) [US12377080, Compound 2] | 6.50 | 7.82 |
| O=C(Nc1ccccn1)C(c1cccc(F)c1)N1Cc2ncc(Br)cc2C1=O (stereo not given) [US12377080, Compound 3] | < 6.00 | 7.40 |
| O=C(Nc1nccs1)C(c1cccc(F)c1)N1Cc2ccc(Br)nc2C1=O (stereo not given) [US12377080, Compound 4] | < 6.00 | 7.85 |
| O=C(Nc1ccccn1)C(c1cccc(F)c1)N1Cc2ccc(Br)nc2C1=O (stereo not given) [US12377080, Compound 5] | < 6.00 | 6.94 |
